US20050096392A1, “Use of creatine pyruvate for increasing stamina during highly intensive intermittent physical exertion” (priority 2002, published 2005)

What was measured:
[1] = test system: lower arm musculature; test: Intermittent test with the lower arm musculature, blood tests and acid-base status; assay type: in vivo, human
Procedure: (§1) In a double-blind study, creatine pyruvate (A) and placebo (B) were tested. The male experimental subjects (n=32; age: 18 to 32) were divided into groups, each of n=16, so that the maximum oxygen consumption per kilogram of body weight was on average the same in the groups, and the types of sport undertaken were usually distributed the same as far as possible. This led to the fact that the mean strength in the intermittent studies was not the same. The test subjects of group A were administered 5.0 g of creatine pyruvate per day over a period of 28 days. The initial test (IT) was carried out on the 1st day, and the closing test (CT) on the 29th day.
The arm of the seated test subjects is positioned extended (horizontally) at the side at shoulder height. The hand lies on an adjustable-weight gripper (stroke length: 3 cm). The arm is supported at the elbow. The test subjects must perform highly intensive intermittent work, for which they compress the adjustable-weight gripper at the maximum possible frequency. The weight in the basket is 80% of the maximum weight achieved in a preliminary test in which the load, starting at 7.5 kg, is increased by 2.5 kg every 3 minutes. The contraction frequency is 24/min. The maximum weight is reached when the 3 cm stroke length can no longer be overcome. Blood is taken from the cubital vein on the working arm. The skin blood flow is reduced by cooling. […]

[2] = Double-blind study, anthropometric data; assay type: in vivo, human
Procedure: as §1, with “day. In the morning between 8 and 11 o'clock fasted blood sampling, record of anthropometric data; standardized breakfast; then intermittent test of the lower arm musculature. […] The circumference of the thickest part of the lower arm increased in group A (p<0.005).” for “day.”

[3] = design: species or system human; conditions: in vivo
Procedure: as §1, with “day. In the morning between 8 and 11 o'clock fasted blood sampling, record of anthropometric data; standardized breakfast; then intermittent test of the lower arm musculature.” for “day.”

[4] = test system: lower arm musculature; test: Intermittent test with the lower arm musculature, mechanical parameters; assay type: in vivo, human
Procedure: as §1
The arm of the seated test subjects is positioned extended (horizontally) at the side at shoulder height. The hand lies on an adjustable-weight gripper (stroke length: 3 cm). The arm is supported at the elbow. The test subjects must perform highly intensive intermittent work, for which they compress the adjustable-weight gripper at the maximum possible frequency. The weight in the basket is 80% of the maximum weight achieved in a preliminary test in which the load, starting at 7.5 kg, is increased by 2.5 kg every 3 minutes. The contraction frequency is 24/min. The maximum weight is reached when the 3 cm stroke length can no longer be overcome. Blood is taken from the cubital vein on the working arm. The skin blood flow is reduced by cooling. Blood was taken in each case before and after the 1st, 2nd, 6th, 9th and 10th period.
Via an inductive distance measurer on the adjustable-weight gripper, the stroke length of the weight basket was measured. From the signal, 4 measurements can be obtained. • 1. Contraction rate • 2. Stroke length • 3. Duration of the total contraction • 4. Integral of stroke length over time
The force is the mean force during the shortening phase, not the point-measurement maximum force. It is only the force which was developed additionally to the force necessary to overcome the force of gravity. In addition, the relaxation rate and the contraction frequency were determined. The evaluation was started with the fourth contraction. Thereafter, each contraction was evaluated over 12 seconds. The mechanical parameters were determined in the 1st, 2nd, 6th and 9th interval.

[5] = administration of creatine pyruvate
[6] = closing test, day 29, after 5.0 g per day over 28 days
[7] = initial vs closing test, 5.0 g per day over 28 days
[8] = initial vs closing test, p<0.005
[9] = highly intensive intermittent work, 80% of maximum weight, analysis of variance, p<0.01

Change of HB [3]: not different | Change of Hct [3]: not different | Change of LDL cholesterol [3]: just above the level of significance | Change of leukocyte number [3]: no difference | Change of number of erythrocytes [3]: decreased significantly | Change of uric acid concentration [3]: significant decrease | Creatinine, CT mean [3]: 1.19 | Creatinine, IT mean [3]: 1.07 mg/dL | Effect on fat metabolism at rest [3]: no effect | Erythrocytes, CT mean [3]: 4.96 | Erythrocytes, IT mean [3]: 5.3 10^6/µL | Hb, CT mean [3]: 15.4 g/dL | Hb, IT mean [3]: 15.56 | Hct, CT mean [3]: 45.13 | Hct, IT mean [3]: 45.5% | Leukocytes, CT mean [3]: 9386.67 | Leukocytes, IT mean [3]: 8980 µL⁻¹ | PT, CT mean [3]: 6.20 | PT, IT mean [3]: 5.40 | Urea, CT mean [3]: 30.00 | Urea, IT mean [3]: 34.07 | Uric acid, CT mean [3]: 5.29 mg/dL | Uric acid, IT mean [3]: 5.64 mg/dL
Substance: creatine pyruvate
Overacidification of muscle tissue in highly intensive intermittent exertion [1, 5]: does not occur, or only occurs to a very slight extent | Rise of maximum values during exertion (parameter not named at the place) ([1]; t test for paired random samples, p<0.002): significantly lower rise | BIA fat measurement, CT mean [2, 6]: 16.63 kg | BIA water measurement, CT mean [2, 6]: 47.39 kg | Body fat (skinfold), CT mean [2, 6]: 11.59% | Body weight, CT mean [2, 6]: 83.20 kg | Circumference of lower elbow, CT mean [2, 6]: 29.62 cm | Circumference of thickest point of the arm, CT mean [2, 6]: 29.67 cm | BIA fat measurement, IT mean ([2]; initial test, day 1): 16.69 kg | BIA water measurement, IT mean ([2]; initial test, day 1): 46.64 kg | Body fat (skinfold), IT mean ([2]; initial test, day 1): 11.33% | Circumference of lower elbow, IT mean ([2]; initial test, day 1): 28.94 cm | Circumference of thickest point of the arm, IT mean ([2]; initial test, day 1): 29.01 cm | Body weight, IT mean ([2]; initial test, day 1, group A, 5.0 g per day over 28 days): 81.70 kg | Change of body fat content (skinfold thickness and BIA) [2, 7]: no change in body fat content | Change of body weight [2, 7]: increased significantly | Change of body fat content (skinfold thickness and BIA) ([2]; initial vs closing test, 5.0 g per day over 28 days, listed as A): remained the same | Change of body H2O ([2]; initial vs closing test, one-sided test, p<0.05): increases in body H2O were significant | Change of circumference at the epicondyles [2, 8]: The same applied | Change of circumference of the thickest part of the lower arm [2, 8]: increased | Effects on kidney and liver function and fat metabolism parameters [3]: no adverse effects | Muscle fatigue under highly intensive intermittent exertion [4, 5]: significant reduction in muscle fatigue | Relaxation rate ([4]; highly intensive intermittent work, 80% of maximum weight): showed a tendency to increase | Power calculated from the shortening rate ([4]; highly intensive intermittent work, 80% of maximum weight, analysis of variance, p<0.005): increased in all intervals | Contraction frequency [4, 9]: increased in all intervals | Force [4, 9]: increased in all intervals | Performance in highly intensive exertion ([4]; short exertion and final intervals): significant increase in performance
